The subject of one test is MRC-5 cells. Briefly: MRC-5SV2 cytotoxicity assay. To be noted: Homo sapiens, MRC5, 72 h, read-out: pIC50 MRC-5 (converted). It counts as cell-based. The protocol: The synthesized analogues were tested against T. b. brucei, and inhibition of MRC-5 (human lung fibroblasts MRC-5SV40) cell proliferation was included as cytotoxicity control. […] Analogue 17 with an amino group instead of the carbonyl group was prepared to improve solubility for further modification. […] In vitro experiments were carried out with the bloodstream form of the T. b. brucei Squib strain (suramin-sensitive). […] All cultures and assays were conducted at 37 °C under an atmosphere of 5% CO2. […] Cell growth is compared to untreated-control wells (100% cell growth) and medium-control wells (0% cell growth). […] After 4 h at 37 °C, fluorescence is measured (λex 550 nm, λem 590 nm). The results are expressed as % reduction in cell growth/viability compared to control wells and an IC50 and an IC90 (50 and 90% inhibitory concentrations) are determined.

The next test relates to T. b. brucei. The experiment in a line: Trypanosoma susceptibility assay (resazurin viability). The test is classed as cell-based. To be noted: for potency lower compared to 31a: T. brucei, versus compound 31a; for antitrypanosomal activity (in words): T. brucei in vitro; for decrease of antitrypanosomal activity compared with 2: T. b. brucei, versus compound 2. The protocol: The antiparasitic assays were carried out exactly as described in Blaazer et al.([39]) Metabolic stability, pharmacokinetics, acute mouse infection model results were collected as described previously.[21] All animal experiments were conducted in compliance with institutional guidelines and following approval by the Ethical Committee of the University of Antwerp, Belgium [UA-ECD 2014–96]. Female Swiss mice (15–20 g), were purchased from Janvier (Le Genest Saint Isle, France). […] Animals were treated PO b.i.d. for 5 days at 25 and 50 mg/kg 31c. For the SL-RNA qPCR experiments blood was collected sublingually and subjected to erythrocyte lysis before extracting RNA with the QIAamp RNA Blood Mini kit (Qiagen). […] Small pieces of fat, brain, and spleen tissue were excised and immediately transferred to RNA later (Qiagen) and incubated overnight at 4 °C. RNA extraction was performed as instructed in the RNeasy Mini Plus Kit manual (Qiagen). The one-step SensiFAST SYBR Hi-Rox PCR kit (Bioline USA Inc., via Gentaur Belgium BVBA, Kampenhout, Belgium) was used for the PCR with the following forward and reverse primers, respectively 5′-[…]-3′ and 5′-[…]-3′. An initial activation step of 10 min at 45 °C and 10 min at 95 °C was used, followed by the amplification step for 40 cycles (15 s at 95 °C, 15 s 50 °C and 15 s at 60 °C). At last, the melting curves were generated with an increment of 0.3 °C (15 s at 95 °C 1 min at 45 °C and 15 s at 95 °C). The PCR was run on the Step One Plus real-time PCR system (Applied Biosystems, California, USA). An additional qPCR was performed with the mouse housekeeping gene Eef2 to confirm successful RNA extraction.
In vitro experiments were carried out with the bloodstream form of the T. b. brucei Squib strain (suramin-sensitive). Parasites were routinely cultured in T25 culture flasks containing 10 mL of HMI-9 medium (Invitrogen) supplemented with 10% heat-inactivated fetal bovine serum (Life Technologies) and 2.5 μg/mL Geneticin (Life Technologies). MRC-5SV2 cells were cultured in MEM + Earl’s salts-medium, supplemented with 2 mM L-glutamine, 16.5 mM NaHCO3, and 5% inactivated fetal calf serum. All cultures and assays were conducted at 37 °C under an atmosphere of 5% CO2.
Parasites were counted in a KOVA counting chamber and diluted to 1.5 × 10^4 parasites/well of a 96-well plate (200 μL total volume), upon which the prediluted test compounds were added. Drug exposure covered a 72 h period without renewal of the culture medium. After 3 days of incubation, parasite growth was assessed fluorimetrically after addition of 50 μL of resazurin per well. After 6 h (T. b. rhodesiense) or 24 h (T. b. brucei) at 37 °C, fluorescence is measured (λex 550 nm, λem 590 nm). Parasite viability was assessed using the resazurin viability assay, and drug activity was calculated as percentage viability reduction compared to nontreated controls.
In general terms: Alamar Blue is a resazurin reagent that responds to reducing activity.

[1] abbreviates: cytotoxicity, 3 days incubation, mean ± SD, n ≥ 2.
[2] abbreviates: Trypanosoma brucei, 72 h, T. b. brucei Squib bloodstream form, 72 h exposure, mean ± SD, n ≥ 2, read-out: pIC50 T. brucei (converted).
Setting [3] is: T. b. brucei Squib bloodstream form, 72 h exposure, mean ± SD, n ≥ 2.

Counter-ions that a name gives are not always drawn. Like-named read-outs stand apart in the source and are kept apart here.

Take `O=c1[nH]c(-c2ccc(F)cc2)nc2cn[nH]c12` [31f, 5-(4-Fluorophenyl)-1,6-dihydro-7H-pyrazolo[4,3-d]pyrimidin-7-one Formate]: the IC50 in the test with MRC-5 cells is greater than 63.1 µM; in the test on T. b. brucei (Trypanosoma brucei, 72 h, read-out: pIC50 T. brucei (converted)) it was greater than 63.1 µM.

Turning to `CCn1nc(C(C)C)c2nc(-c3ccc(F)cc3)[nH]c(=O)c21` [21a, 1-Ethyl-5-(4-fluorophenyl)-3-isopropyl-1,6-dihydro-7H-pyrazolo[4,3-d]pyrimidin-7-one], the figures for the IC50 in the test with MRC-5 cells (setting [1]) and in the test with T. b. brucei (setting [2]) were greater than 63.1 µM and 0.251 µM, respectively.

Consider `CC(C)c1nn(CCO)c2c(=O)[nH]c(-c3ccc(F)cc3)nc12` [compound 22, 5-(4-Fluorophenyl)-1-(2-hydroxyethyl)-3-isopropyl-1,6-dihydro-7H-pyrazolo[4,3-d]pyrimidin-7-one], for which the IC50 in the test with MRC-5 cells (setting [1]) was greater than 63.1 µM; in the test on T. b. brucei (setting [2]), 0.631 µM; in the test with T. b. brucei (Trypanosoma brucei, read-out: IC50 against T. brucei) it was 0.8 µM.

Turning to `CCc1n[nH]c2c(=O)[nH]c(-c3ccc(F)cc3)nc12` [31d, 3-Ethyl-5-(4-fluorophenyl)-1,6-dihydro-7H-pyrazolo[4,3-d]pyrimidin-7-one], the IC50 is greater than 63.1 µM with MRC-5 cells (setting [1]) and 0.398 µM in the test on T. b. brucei (setting [2]).

On to `Cc1n[nH]c2c(=O)[nH]c(-c3ccc(F)cc3)nc12` [31e, 5-(4-Fluorophenyl)-3-methyl-1,6-dihydro-7H-pyrazolo[4,3-d]pyrimidin-7-one], for which the IC50 in the test on MRC-5 cells (setting [1]) is greater than 63.1 µM; in the test on T. b. brucei (setting [2]) it was 25.1 µM.

As for “5-(4-Fluorophenyl)-3-isopropyl-1-(4-methoxyphenethyl)-1,6-dihydro-7H-pyrazolo[4,3-d]pyrimidin-7-one [21e]”, the IC50 with T. b. brucei (read-out: IC50 against T. brucei) came out at 3.2 µM.

Consider `O=c1[nH]c(-c2ccc(F)cc2)nc2c(C3CCCCC3)n[nH]c12` [31b, 3-Cyclohexyl-5-(4-fluorophenyl)-1,6-dihydro-7H-pyrazolo[4,3-d]pyrimidin-7-one], for which the IC50 with MRC-5 cells (setting [1]) was greater than 63.1 µM. In the test on T. b. brucei, the “potency lower compared to 31a” value is 4 fold.

In the case of `COCCn1nc(C(C)C)c2nc(-c3ccc(F)cc3)[nH]c(=O)c21` [21d, 5-(4-Fluorophenyl)-3-isopropyl-1-(2-methoxyethyl)-1,6-dihydro-7H-pyrazolo[4,3-d]pyrimidin-7-one], the IC50 in the test with MRC-5 cells (setting [1]) and in the test on T. b. brucei (setting [2]) was greater than 63.1 µM throughout. In addition, the “antitrypanosomal activity (in words)” value in the test on T. b. brucei is listed as “no antitrypanosomal activity at all”.

Turning to `O=c1[nH]c(-c2ccc(F)cc2)nc2c(-c3ccccc3)n[nH]c12` [compound 35, 5-(4-Fluorophenyl)-3-phenyl-1,6-dihydro-7H-pyrazolo[4,3-d]pyrimidin-7-one], the IC50 is greater than 63.1 µM with MRC-5 cells (setting [1]) and less than 0.1 µM with T. b. brucei (setting [2]). Further, the “pIC50 T. brucei” value with T. b. brucei (setting [3]) is on record as 7.3 ± 0.1. The “potency lower compared to 31a” value with T. b. brucei stood at 4 fold.

As to `CC(C)c1nn(C)c2c(=O)[nH]c(-c3ccc(F)cc3)nc12` [compound 11, 5-(4-Fluorophenyl)-3-isopropyl-1-methyl-1,6-dihydro-7H-pyrazolo[4,3-d]pyrimidin-7-one], the IC50 in the test on MRC-5 cells (setting [1]) is greater than 63.1 µM; in the test with T. b. brucei (setting [2]), less than 0.1 µM. In addition, the “pIC50 T. brucei” value with T. b. brucei (setting [3]) was 7.1 ± 0.1.

For `CC(C)c1nn(CCC(N)=O)c2c(=O)[nH]c(-c3ccc(F)cc3)nc12` [21f, 3-(5-(4-Fluorophenyl)-3-isopropyl-7-oxo-6,7-dihydro-1H-pyrazolo[4,3-d]pyrimidin-1-yl)propanamide], the IC50 in the test with MRC-5 cells (setting [1]) and with T. b. brucei (setting [2]) was greater than 63.1 µM throughout. The “antitrypanosomal activity (in words)” value in the test on T. b. brucei is “no antitrypanosomal activity”.

On to `CC(C)c1nn(C(C)C)c2c(=O)[nH]c(-c3ccc(F)cc3)nc12` [21c, 5-(4-Fluorophenyl)-1,3-diisopropyl-1,6-dihydro-7H-pyrazolo[4,3-d]pyrimidin-7-one], for which the IC50 was greater than 63.1 µM in the test with MRC-5 cells (setting [1]) and 6.31 µM in the test on T. b. brucei (setting [2]). For the same molecule, the “decrease of antitrypanosomal activity compared with 2” value in the test with T. b. brucei is listed as roughly 100 fold.

Regarding `CC(C)c1n[nH]c2c(=N)[nH]c(-c3ccc(F)cc3)nc12` [compound 17, 5-(4-Fluorophenyl)-3-isopropyl-1,6-dihydro-7H-pyrazolo[4,3-d]pyrimidin-7-imine], the values for the IC50 in the test on MRC-5 cells (setting [1]) and in the test on T. b. brucei (setting [2]) were 25.1 µM and greater than 10 µM, respectively. Further, the “decrease of antitrypanosomal activity compared with 2” value with T. b. brucei was greater than 100 fold.

The values are drawn from article PMC10895668, “Lead Optimization of the 5-Phenylpyrazolopyrimidinone NPD-2975 toward Compounds with Improved Antitrypanosomal Efficacy” (Journal of Medicinal Chemistry, 2024).
